Values joined by “and” are separate entries in the source; they are usually repeats but may differ in a detail not shown here. Identical values can stand only once.
What was measured:
Details in all cases: exposure time: 72 h
E34 [1] = patient-derived glioblastoma stem cells of proneural subtype; experiment: phenotypic distance (Euclidean, principal components) from DMSO controls (arbitrary units); higher = stronger morphological change
E57 [2] = patient-derived glioblastoma stem cells of mesenchymal subtype; experiment: as above
FT3469 [3] = normal neural stem cell line; experiment: as above
E13 [4] = patient-derived glioblastoma stem cells of classical subtype; experiment: as above
E28 [5] = patient-derived glioblastoma stem cells of classical subtype; experiment: as above
E21 [6] = patient-derived glioblastoma stem cells of mesenchymal subtype; experiment: as above
E31 [7] = patient-derived glioblastoma stem cells of proneural subtype; experiment: as above
E34 [8] = experiment: surviving fraction (nuclei count normalised to DMSO); higher = more cells surviving (less toxic)
E57 [9] = experiment: as above
FT3469 [10] = experiment: as above
E13 [11] = experiment: as above
E28 [12] = experiment: as above
E21 [13] = experiment: as above
E31 [14] = experiment: as above
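For phenotypic distance (Euclidean, principal components) from DMSO controls in this document: cell Painting imaging in 384-well plates, CellProfiler features reduced to at least 20 principal components, Euclidean distance versus same-plate DMSO vehicle wells (0.1% v/v), median over six images per well.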
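For surviving fraction (nuclei count normalised to DMSO) in this document: nuclei counted by high-content imaging of Hoechst-stained cells in laminin-coated 384-well plates, relative to 0.1% DMSO vehicle wells, with staurosporine as cell-death control.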

Cc1ccc(C(=O)N(CCCN)[C@@H](c2oc3cc(Cl)ccc3c(=O)c2Cc2ccccc2)C(C)C)cc1
Details	phenotypic distance	surviving fraction
E13 [4], 4.1 nM	3.01 and 2.45	–
E13 [4], 12.3 nM	3.35 and 2.7	–
E13 [4], 37 nM	2.78	–
E13 [4], 111.1 nM	3.42 and 3.07	–
E13 [4], 333.3 nM	2.78 and 2.91	–
E13 [4], 1000 nM	2.81 and 3.02	–
E13 [4], 3000 nM	2.53 and 5.91	–
E13 [11], 4.1 nM	–	0.451 and 0.49
E13 [11], 12.3 nM	–	0.443 and 0.489
E13 [11], 37 nM	–	0.461 and 0.468
E13 [11], 111.1 nM	–	0.399 and 0.43
E13 [11], 333.3 nM	–	0.428 and 0.492
E13 [11], 1000 nM	–	0.445 and 0.399
E21 [6], 4.1 nM	6.85 and 5.14	–
E21 [6], 12.3 nM	6.99 and 5.4	–
E21 [6], 37 nM	7.53 and 5.43	–
E21 [6], 111.1 nM	5.98 and 4.77	–
E21 [6], 333.3 nM	7.67 and 4.85	–
E21 [6], 1000 nM	6.93 and 5.54	–
E21 [6], 3000 nM	10.1 and 4.79	–
E21 [13], 4.1 nM	–	0.198 and 0.164
E21 [13], 12.3 nM	–	0.186 and 0.161
E21 [13], 37 nM	–	0.159 and 0.158
E21 [13], 111.1 nM	–	0.192 and 0.177
E21 [13], 333.3 nM	–	0.178 and 0.162
E21 [13], 1000 nM	–	0.21 and 0.182
E28 [5], 4.1 nM	3.6 and 2.9	–
E28 [5], 12.3 nM	3.5 and 3.14	–
E28 [5], 37 nM	3.73 and 3.19	–
E28 [5], 111.1 nM	3.42 and 3.15	–
E28 [5], 333.3 nM	3.17 and 2.59	–
E28 [5], 1000 nM	3.49 and 3.39	–
E28 [12], 4.1 nM	–	0.424 and 0.34
E28 [12], 12.3 nM	–	0.335 and 0.367
E28 [12], 37 nM	–	0.415 and 0.342
E28 [12], 111.1 nM	–	0.346 and 0.352
E28 [12], 333.3 nM	–	0.428 and 0.43
E28 [12], 1000 nM	–	0.328 and 0.336
E31 [7], 4.1 nM	4.81	–
E31 [7], 12.3 nM	3.13	–
E31 [7], 37 nM	3.36	–
E31 [7], 111.1 nM	3.73	–
E31 [7], 333.3 nM	4.39	–
E31 [7], 1000 nM	3.79	–
E31 [7], 3000 nM	11.9	–
E31 [14], 4.1 nM	–	0.165
E31 [14], 12.3 nM	–	0.184
E31 [14], 37 nM	–	0.189
E31 [14], 111.1 nM	–	0.126
E31 [14], 333.3 nM	–	0.171
E31 [14], 1000 nM	–	0.174
E31 [14], 3000 nM	–	0.00446
E34 [1], 4.1 nM	2.72 and 1.93	–
E34 [1], 12.3 nM	2.65 and 1.73	–
E34 [1], 37 nM	2.52 and 2.06	–
E34 [1], 111.1 nM	2.4 and 1.93	–
E34 [1], 333.3 nM	2.3 and 2.24	–
E34 [1], 1000 nM	2.35 and 1.99	–
E34 [8], 4.1 nM	–	0.598 and 0.534
E34 [8], 12.3 nM	–	0.575 and 0.607
E34 [8], 37 nM	–	0.606 and 0.576
E34 [8], 111.1 nM	–	0.429 and 0.564
E34 [8], 333.3 nM	–	0.575 and 0.595
E34 [8], 1000 nM	–	0.549 and 0.594
E57 [2], 4.1 nM	8.08 and 4.22	–
E57 [2], 12.3 nM	4.11 and 7.9	–
E57 [2], 37 nM	4.48 and 8.38	–
E57 [2], 111.1 nM	4.53 and 7.47	–
E57 [2], 333.3 nM	4.17 and 7.46	–
E57 [2], 1000 nM	4.05 and 7.38	–
E57 [2], 3000 nM	3.9 and 9.85	–
E57 [9], 4.1 nM	–	0.0969 and 0.0961
E57 [9], 12.3 nM	–	0.0867 and 0.0693
E57 [9], 37 nM	–	0.0872 and 0.0935
E57 [9], 111.1 nM	–	0.101 and 0.085
E57 [9], 333.3 nM	–	0.0996 and 0.117
E57 [9], 1000 nM	–	0.119 and 0.0974
FT3469 [3], 4.1 nM	2.95 and 2.85	–
FT3469 [3], 12.3 nM	2.63 and 2.23	–
FT3469 [3], 37 nM	2.78 and 2.25	–
FT3469 [3], 111.1 nM	3.02 and 2.28	–
FT3469 [3], 333.3 nM	3.08 and 2.17	–
FT3469 [3], 1000 nM	2.54 and 2.94	–
FT3469 [10], 4.1 nM	–	0.493 and 0.523
FT3469 [10], 12.3 nM	–	0.562 and 0.558
FT3469 [10], 37 nM	–	0.606 and 0.566
FT3469 [10], 111.1 nM	–	0.534 and 0.565
FT3469 [10], 333.3 nM	–	0.489 and 0.597
FT3469 [10], 1000 nM	–	0.556 and 0.549

CCC(C)(C)C(=O)O[C@H]1C[C@@H](C)C=C2C=C[C@H](C)[C@H](CC[C@@H]3C[C@@H](O)CC(=O)O3)[C@H]21 [Simvastatin]
phenotypic distance
Details	E13 [4]	E21 [6]	E28 [5]	E31 [7]	E34 [1]	E57 [2]	FT3469 [3]
4.1 nM	0.99	1.6	1.08	0.808	1.5	1.7	1.31
12.3 nM	0.654	1.96	1.13	0.911	1.01	0.806	1.32
37 nM	1.13	2.52	1.19	0.566	0.739	1.4	2.33
111.1 nM	1.23	2.77	1.42	1.39	0.945	0.799	1.86
333.3 nM	2.27	4.05	1.61	1	1.16	1.19	2.21
1000 nM	2.58	4.54	1.56	0.996	0.529	1.46	2.66
3000 nM	4.02	5.96	3.67	3.45	1.72	3.54	3.39
